Read-outs that look alike come from different tables or passages of the source.
Legend:
[1] = tested on: mesenteric artery; assay: Relaxation of mesenteric artery (KCl-contracted); details: rabbit mesenteric artery contracted with 15 to 20 mM KCl, read-out: ED50 (concentration attaining 50% of complete relaxation)
Experimental: 1. Relaxation of Mesenteric Artery
A rabbit of Japanese local variety weighing about 3 kg was bled to death. Then, the abdomen of the rabbit was dissected to locate a mesenteric artery. […] Thus, shrinking and relaxation of the artery could be measured as a load on the transducer. To the organ bath, KCl was added so that the KCl concentration became 15 to 20 mM, causing the artery to shrink. Then, the compounds of the present invention were added to the organ bath to observe relaxation of the artery.
The effect of the compounds of the present invention on relaxation of mesenteric artery was examined according to the method as mentioned hereinbefore.

[2] = tested on: coronary artery; assay: Blood flow increase of coronary artery in anesthetized dogs, i.v.; format: in vivo, dog (mongrel); details: Canis lupus familiaris, iv; for change in vivo at 0.3 mg/kg: read-out: Increase in coronary artery blood flow
Experimental: (§1) 2. Blood Flow Increase of Coronary, Vertebral and Femoral Arteries
(§2) A plethysmographic probe (manufactured and sold by NIHON KODEN CO., LTD., Japan) was mounted on the coronary, vertebral and femoral arteries, and blood flow was measured by means of an electromagnetic blood flowmeter (type:MF-27, manufactured and sold by NIHON KODEN CO., LTD., Japan). Under these conditions, the compounds of the present invention were intravenously administered through a polyethylene tube inserted to a femoral veinlet, and the change in blood flow was measured for 30 minutes by means of the electromagnetic blood flowmeter.
(§3) The effects (dilation of the arteries) of the compounds of the present invention on blood flow in coronary, vertebral and femoral arteries were examined according to the method as mentioned hereinbefore.

[3] = tested on: vertebral artery; assay: Blood flow increase of vertebral artery in anesthetized dogs, i.v.; format: in vivo, dog (mongrel); details: Canis lupus familiaris, iv; for change in vivo at 0.3 mg/kg: read-out: Increase in vertebral artery blood flow
Experimental: as §1, §2, §3

[4] = tested on: femoral artery; assay: Blood flow increase of femoral artery in anesthetized dogs, i.v.; format: in vivo, dog (mongrel); details: Canis lupus familiaris, iv; for change in vivo at 0.3 mg/kg: read-out: Increase in femoral artery blood flow
Experimental: as §1, §2, §3

[5] = tested on: bronchial tubes; assay: Inhibition of histamine contraction of bronchial tubes (relaxation of bronchial tubes); details: guinea pig bronchial tube, 10 μM histamine, Table 16, read-out: ED50 (50% decrease of histamine contraction of bronchial tubes)
Experimental: 3. Inhibition of Histamine Contraction of Bronchial Tubes (Relaxation of Bronchial Tubes)
That is, a bronchial tube sample taken from a guinea pig was suspended in the 20-ml bath filled with Krebs-Henseleit nutrient solution and maintained at a temperature of 37° C. To the bath was added histamine so that the histamine concentration became 10 μM, causing the bronchial tube sample to contract. After the contraction became stable, the compounds of the present invention were added cumulatively to the bath to observe relaxation of the bronchial tube sample.
The effect of the compounds of the present invention on relaxation of bronchial tubes was examined according to the method as mentioned hereinbefore.

[6] = Acute toxicity in mice; details: mouse, in vivo, iv; male mice
Experimental: Using ddY male mice and Wistar male rats, the acute toxicity of the compounds of the present invention was examined with respect to LD50 according to the method proposed by K. Takagi et al. (K. Takagi and H. Ozawa, "Expeprimental Techniques in Pharmacology," p200-206 (1960), NANZANDO CO., LTD., Japan).
Compounds of the present invention were tested with respect to acute toxicities according to the method as mentioned hereinbefore.

EC50 ([1]; Oryctolagus cuniculus) [µM] | EC50 ([5]; Cavia porcellus) [µM] | Molecule | also measured
– | – | O=S(=O)(c1cccc2c(O)nccc12)N1CCCNCC1 [Comparative Compound No. 2, 1(1-Hydroxy-5-isoquinolinesulfonyl)-homopiperazine, reference compound] | change in vivo at 0.3 mg/kg [2]: 27%; change in vivo at 0.3 mg/kg [3]: 48%; change in vivo at 0.3 mg/kg [4]: 30%
– | – | O=S(=O)(c1cccc2cnccc12)N1CCNCC1 [Comparative Compound No. 3, 1(5-Isoquinolinesulfonyl)piperazine, reference compound] | change in vivo at 1 mg/kg ([2]; dog): 70%; change in vivo at 1 mg/kg ([3]; dog): 98%; change in vivo at 1 mg/kg ([4]; dog): 69%
9 | 10 | CCCCCCNCCN(CCCCCC)S(=O)(=O)c1cccc2cnccc12 [Compound (29), N-(2-hexylaminoethyl)-N-hexyl-5-isoquinolinesulfonamide] | –
12 | 30 | NC1CCN(S(=O)(=O)c2cccc3cnccc23)C1 (stereo not shown) [Compound (78), 1-(5-isoquinolinesulfonyl)-3-aminopyrrolidine] | –
24 | 21 | O=S(=O)(c1cccc2cnccc12)N1CCCC(N2CCCCC2)C1 (stereo not shown) [Compound (72), 1-(5-isoquinolinesulfonyl)-3-piperidinopiperidine] | –
13 | 11 | CCCNC1CCCN(S(=O)(=O)c2cccc3c(O)nccc23)C1 (stereo not shown) [Compound (85), 1-(1-hydroxy-5-isoquinolinesulfonyl)-3-propylaminopiperidine] | –
20 | 21 | CCCCCN(CCCCCCNCc1ccccc1)S(=O)(=O)c1cccc2cnccc12 [Compound (34), N-(6-benzylaminohexyl)-N-pentyl-5-isoquinolinesulfonamide] | –
4 | 10 | CCCCCCNC1CCCN(S(=O)(=O)c2cccc3cnccc23)C1 (stereo not shown) [Compound (71), 1-(5-isoquinolinesulfonyl)-3-hexylaminopiperidine] | change in vivo at 1 mg/kg ([2]; dog): 102%; change in vivo at 1 mg/kg ([3]; dog): 85%; change in vivo at 1 mg/kg ([4]; dog): 35%
21 | 19 | CN(C)C1CCCN(S(=O)(=O)c2cccc3c(Cl)nccc23)C1 (stereo not shown) [Compound (99), 1-(1-chloro-5-isoquinolinesulfonyl)-3-dimethylaminopiperidine] | –
14 | 10 | CC(C)NC1CCCN(S(=O)(=O)c2cccc3cnccc23)C1 (stereo not shown) [Compound (67), 1-(5-isoquinolinesulfonyl)-3-isopropylaminopiperidine] | –
4 | 5 | CC(C)N(CCN)S(=O)(=O)c1cccc2cnccc12 [Compound (2), N-(2-aminoethyl)-N-isopropyl-5-isoquinolinesulfonamide] | –
13 | 19 | CCCCCCNCCCN(CCCCCC)S(=O)(=O)c1cccc2cnccc12 [Compound (33), N-(3-hexylaminopropyl)-N-hexyl-5-isoquinolinesulfonamide] | –
16 | 13 | CCCCCCN(C(CN)CCCC)S(=O)(=O)c1cccc2cnccc12 (stereo not shown) [Compound (19), N-(1-aminomethylpentyl)-N-hexyl-5-isoquinolinesulfonamide] | –
14 | 10 | CCCCNC1CCN(S(=O)(=O)c2cccc3cnccc23)CC1 [Compound (56), 1-(5-isoquinolinesulfonyl)-4-butylaminopiperidine] | –
7 | 13 | O=S(=O)(c1cccc2cnccc12)N1CCCC(NCCc2ccccc2)C1 (stereo not shown) [Compound (70), 1-(5-isoquinolinesulfonyl)-3-phenethylaminopiperidine] | –
4 | 5 | NCCN(Cc1ccccc1)S(=O)(=O)c1cccc2cnccc12 [Compound (6), N-(2-aminoethyl)-N-benzyl-5-isoquinolinesulfonamide] | –
7 | 25 | CCCCCCCCC(N)CN(CCCCCC)S(=O)(=O)c1cccc2cnccc12 (stereo not shown) [Compound (15), N-(2-aminodecyl)-N-hexyl-5-isoquinolinesulfonamide] | –
17 | 15 | CCCN(CC(C)CN)S(=O)(=O)c1cccc2cnccc12 (stereo not shown) [Compound (20), N-(3-amino-2-methylpropyl)-N-propyl-5-isoquinolinesulfonamide] | –
6 | 5 | CCNC1CCCN(S(=O)(=O)c2cccc3cnccc23)C1 (stereo not shown) [Compound (65), 1-(5-isoquinolinesulfonyl)-3-ethylaminopiperidine] | –
– | – | 1-(1-chloro-5-isoquinolinesulfonyl)-3-(N-hexyl-N-methylamino)piperidine [Compound (100)] | EC50 [1]: 22 µM; EC50 [5]: 22 µM
14 | 10 | CCN(C(C)CN)S(=O)(=O)c1cccc2cnccc12 (stereo not shown) [Compound (17), N-(2-amino-1-methylethyl)-N-ethyl-5-isoquinolinesulfonamide] | –
12 | 10 | O=S(=O)(c1cccc2c(O)nccc12)N1CCCC(NCCc2ccccc2)C1 (stereo not shown) [Compound (89), 1-(1-hydroxy-5-isoquinolinesulfonyl)-3-phenethylaminopiperidine] | –
5 | 11 | CCCCCCN(CCCCN)S(=O)(=O)c1cccc2cnccc12 [Compound (8), N-(4-aminobutyl)-N-hexyl-5-isoquinolinesulfonamide] | –
– | – | O=S(=O)(c1cccc2cnccc12)N1CCCNCC1 [Comparative Compound No. 1, 1(5-Isoquinolinesulfonyl)homopiperazine, reference compound] | change in vivo at 0.3 mg/kg ([2]; dog, i.v., 0.3 mg/kg): 89%; change in vivo at 0.3 mg/kg ([3]; dog, i.v., 0.3 mg/kg): 160%; change in vivo at 0.3 mg/kg ([4]; dog, i.v., 0.3 mg/kg): 48%
15 | 13 | NC1CCN(S(=O)(=O)c2cccc3c(O)nccc23)CC1 [Compound (79), 1-(1-hydroxy-5-isoquinolinesulfonyl)-4-aminopiperidine] | –
20 | 15 | O=S(=O)(c1cccc2c(O)nccc12)N1CCCC(Nc2ccccc2)C1 (stereo not shown) [Compound (87), 1-(1-hydroxy-5-isoquinolinesulfonyl)-3-phenylaminopiperidine] | –
10 | 22 | CCCCCCCCC(N)CN(CCC)S(=O)(=O)c1cccc2cnccc12 (stereo not shown) [Compound (14), N-(2-aminodecyl)-N-propyl-5-isoquinolinesulfonamide] | –
17 | 14 | NC1CCN(S(=O)(=O)c2cccc3c(Cl)nccc23)C1 (stereo not shown) [Compound (101), 1-(1-chloro-5-isoquinolinesulfonyl)-3-aminopyrrolidine] | –

Molecule | EC50 ([1]; Oryctolagus cuniculus) [µM] | EC50 ([5]; Cavia porcellus) [µM] | also measured
CCCCCCNCCN(CC)S(=O)(=O)c1cccc2cnccc12 [Compound (28), N-ethyl-N-(2-hexylaminoethyl)-5-isoquinolinesulfonamide] | 10 | 9 | change in vivo at 0.3 mg/kg ([2]; dog, i.v., 0.3 mg/kg): 114%; change in vivo at 0.3 mg/kg ([3]; dog, i.v., 0.3 mg/kg): 110%; change in vivo at 0.3 mg/kg ([4]; dog, i.v., 0.3 mg/kg): 31%; LD50 [6]: 145 mg/kg
CCCCN(CCN)S(=O)(=O)c1cccc2cnccc12 [Compound (3), N-(2-aminoethyl)-N-butyl-5-isoquinolinesulfonamide] | 2 | 5 | change in vivo at 0.3 mg/kg ([2]; dog, i.v., 0.3 mg/kg): 134%; change in vivo at 0.3 mg/kg ([3]; dog, i.v., 0.3 mg/kg): 130%; change in vivo at 0.3 mg/kg ([4]; dog, i.v., 0.3 mg/kg): 25%; LD50 [6]: 105 mg/kg
NC1CCCN(S(=O)(=O)c2cccc3c(O)nccc23)C1 (stereo not shown) [Compound (84), 1-(1-hydroxy-5-isoquinolinesulfonyl)-3-aminopiperidine] | 13 | 8 | change in vivo at 1 mg/kg ([2]; dog): 74%; change in vivo at 1 mg/kg ([3]; dog): 51%; change in vivo at 1 mg/kg ([4]; dog): 27%; LD50 [6]: 141 mg/kg
O=S(=O)(c1cccc2c(O)nccc12)N1CCC(NCc2ccccc2)CC1 [Compound (83), 1-(1-hydroxy-5-isoquinolinesulfonyl)-4-benzylaminopiperidine] | 18 | 19 | –

— patent US4798897A, “Isoquinoline derivatives” (Asahi Kasei Kogyo Kabushiki Kaisha, priority 1987, dated 1989)
